Source: patent US10662204B2 (PFIZER INC., priority 2018, dated 2020)

How the values were obtained:
[1] = molecular target: T1, GDP-loaded KRAS (1-169) G12C, C51S, C80L, C118S (Homo sapiens, UniProt P01116, C118S/C51S/C80L/G12C); assay: Mass Spectrometry Reactivity Assay (MSRA): covalent adduct of compound and KRAS G12C, Percent Modification; format: binding; conditions: for MSRA (% modification) 5.0 μM 0.017 hr / MSRA (% modification) 5.0 μM 0.25 hr: 5.0 μM compound; for MSRA (% modification) 10 μM 0.50 hr / MSRA (% modification) 10 μM 0.25 hr: 10 μM compound
T1 construct: GDP-loaded KRAS (1-169) G12C, C51S, C80L, C118S
Method in brief: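 GDP-loaded KRAS(1-169) G12C/C51S/C80L/C118S at 5 μM in 25 mM Hepes pH 7.5, 200 mM NaCl, 5% glycerol incubated at RT with compound (typically 5 or 10 μM final, 1% DMSO). Quenched in formic acid at 1-60 min; intact-protein LC-TOF MS gives % modification = modified/(modified+unmodified).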

[2] = molecular target: KRAS G12C (Homo sapiens, UniProt P01116, G12C); assay: Cell Activity Assay: accumulation of GDP-bound KRAS G12C in MIAPaCa-2 cells (Raf-1 RBD capture, MSD readout); format: cell-based; design: endogenous in cells; host or cells: MIAPaCa-2; conditions: 6 hours, assay limit is 30.00
Method in brief: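 MIAPaCa-2 cells exposed 6 h at 37 °C to 3-fold compound dilutions (0.3% DMSO final), then lysed. Active GTP-KRAS captured on Raf-1 RBD-coated plates, detected with anti-pan-Ras and SULFO-TAG secondary by MSD electrochemiluminescence. Signal normalized to DMSO and maximum inhibition; IC50 from 4-parameter fit.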

| Structure (SMILES) | MSRA (% modification) 5.0 μM 0.017 hr [1] [%] | IC50 [2] [µM] | MSRA (% modification) 10 μM 0.50 hr [1] [%] | MSRA (% modification) 5.0 μM 0.25 hr [1] [%] | MSRA (% modification) 10 μM 0.25 hr [1] [%] |
| --- | --- | --- | --- | --- | --- |
| C=CC(=O)N1CCN(c2nc(Oc3cccc4c3CCN(C3CC3)C4)nc3c(Oc4c(Cl)c(F)cc5[nH]ncc45)nccc23)CC1 [Example 55I, 1-(4-{8-[(5-chloro-6-fluoro-1H-indazol-4-yl)oxy]-2-[(2-cyclo-propyl-1,2,3,4-tetrahydro-isoquinolin-5-yl)oxy]pyrido [3,4-d]pyrimidin-4-yl}piperazin-1-yl)prop-2-en-1-one] | 60 | 0.028 | – | – | – |
| C=CC(=O)N1CCN(c2ncnc3c(Oc4c(Cl)ccc5[nH]ncc45)cccc23)[C@@H](C)C1 [Example 09C, 1-[(3S)-4-{8-[(5-chloro-1H-indazol-4-yl)oxy]quinazolin-4-yl}-3-methylpiperazin-1-yl]prop-2-en-1-one] | – | 2.87 | 34 | – | – |
| C=CC(=O)N1CCN(c2nc(O[C@@H]3CN(C)C[C@H]3OCC)nc3c(Oc4c(Cl)c(F)cc5[nH]ncc45)nc(Cl)cc23)CC1 [Example 27G, 1-[4-(6-chloro-8-[(5-chloro-6-fluoro-1H-indazol-4-yl)oxy]-2-{[(3R,4R)-4-ethoxy-1-methylpyrrolidin-3-yl]oxy}pyrido[3,4-d]pyrimidin-4-yl)piperazin-1-yl]prop-2-en-1-one] | 67 | 0.029 | – | – | – |
| C=CC(=O)N1CCN(c2nc(OC[C@H]3CCOC3)nc3c(Oc4c(Cl)c(F)cc5[nH]ncc45)nccc23)CC1 [Example 04H, 1-(4-{8-[(5-chloro-6-fluoro-1H-indazol-4-yl)oxy]-2-[(3S)-tetrahydrofuran-3-ylmethoxy]pyrido[3,4-d]pyrimidin-4-yl}piperazin-1-yl)prop-2-en-1-one] | – | 0.465 | – | 65 | 73 |
| C=CC(=O)N1CCN(c2nc(NCCc3nncn3C)nc3c(Oc4c(C)ccc5[nH]ncc45)cccc23)CC1 [Example 16F, 1-[4-(8-[(5-methyl-1H-indazol-4-yl)oxy]-2-{[2-(4-methyl-4H-1,2,4-triazol-3-yl)ethyl]amino}quinazolin-4-yl)piperazin-1-yl]prop-2-en-1-one] | – | > 30 | 16 | – | – |
| C=CC(=O)N1CCN(c2nc(OCc3cscn3)nc3c(Oc4c(C)ccc5[nH]ncc45)nccc23)CC1 [Example 22F, 1-(4-{8-[(5-methyl-1H-indazol-4-yl)oxy]-2-(1,3-thiazol-4-ylmethoxy)pyrido[3,4-d]pyrimidin-4-yl}piperazin-1-yl)prop-2-en-1-one] | – | 0.535 | – | 33 | – |
| C=CC(=O)N1CCN(c2nc(Oc3cccnc3)nc3c(Oc4c(Cl)c(F)cc5[nH]ncc45)nccc23)CC1 [Example 13I, 1-(4-{8-[(5-chloro-6-fluoro-1H-indazol-4-yl)oxy]-2-(pyridin-3-yloxy)pyrido [3,4-d]pyrimidin-4-yl}piperazin-1-yl)prop-2-en-1-one] | – | 0.777 | – | 44 | – |
| C=CC(=O)N1CCN(c2nc(OC[C@H]3COCCN3C)nc3c(Oc4c(Cl)c(F)cc5[nH]ncc45)nccc23)CC1 [Example 10H, 1-[4-(8-[(5-chloro-6-fluoro-1H-indazol-4-yl)oxy]-2-{[(3R)-4-methylmorpholin-3-yl]methoxy}pyrido[3,4-d]pyrimidin-4-yl)piperazin-1-yl]prop-2-en-1-one] | – | 0.965 | 68 | 47 | – |
| C=CC(=O)N1CCN(c2nc(O[C@@H]3CN(C)C[C@H]3C(F)F)nc3c(Oc4c(Cl)c(F)cc5[nH]ncc45)nccc23)CC1 (racemic) [Example 36I, rac-1-[4-(8-[(5-chloro-6-fluoro-1H-indazol-4-yl)oxy]-2-{[(3S,4R)-4-(difluoro-methyl)-1-methyl-pyrrolidin-3-yl]oxy}pyrido [3,4-d]pyrimidin-4-yl)piperazin-1-yl]prop-2-en-1-one] | 57 | 0.029 | – | – | – |
| C=CC(=O)N1CCN(c2nc(O[C@@H]3CN(C)C[C@H]3OC)nc3c(Oc4c(Cl)ccc5[nH]ncc45)nc(Cl)cc23)CC1 [Example 38G, 1-[4-(6-chloro-8-[(5-chloro-1H-indazol-4-yl)oxy]-2-{[(3R,4R)-4-methoxy-1-methylpyrrolidin-3-yl]oxy}pyrido[3,4-d]pyrimidin-4-yl)piperazin-1-yl]prop-2-en-1-one] | 75 | 0.021 | – | – | – |
| C=CC(=O)N1CCN(c2nc(OCC3(F)CCN(C)CC3)nc3c(Oc4c(Cl)c(F)cc5[nH]ncc45)nc(Cl)cc23)CC1 [Example 15G, 1-(4-{6-chloro-8-[(5-chloro-6-fluoro-1H-indazol-4-yl)oxy]-2-[(4-fluoro-1-methylpiperidin-4-yl)methoxy]pyrido[3,4-d]pyrimidin-4-yl}piperazin-1-yl)prop-2-en-1-one] | – | 0.019 | – | 80 | – |
| C=CC(=O)N1CCN(c2nc(O[C@@H]3CN(C)C[C@H]3OCC)nc3c(Oc4c(Cl)c(F)cc5[nH]ncc45)nccc23)CC1 [Example 18I, 1-[4-(8-[(5-chloro-6-fluoro-1H-indazol-4-yl)oxy]-2-{[(3R,4R)-4-ethoxy-1-methyl-pyrrolidin-3-yl]oxy}pyrido [3,4-d]pyrimidin-4-yl)piperazin-1-yl]prop-2-en-1-one] | 35 | 0.093 | – | – | – |
| C=CC(=O)N1CCN(c2ncnc3c(Oc4c(C)c(Cl)cc5[nH]ncc45)nccc23)C[C@@H]1C [Example 23A, 1-[(2S)-4-{8-[(6-chloro-5-methyl-1H-indazol-4-yl)oxy]pyrido[3,4-d]pyrimidin-4-yl}-2-methylpiperazin-1-yl]prop-2-en-1-one] | – | 11.6 | 20 | – | – |
| C=CC(=O)N1CCN(c2nc(Oc3cccnc3CC)nc3c(Oc4c(Cl)c(F)cc5[nH]ncc45)nccc23)CC1 [Example 03I, 1-(4-{8-[(5-chloro-6-fluoro-1H-indazol-4-yl)oxy]-2-[(2-ethyl-pyridin-3-yl)oxy]pyrido[3,4-d]pyrimidin-4-yl}piperazin-1-yl)prop-2-en-1-one] | – | 0.06 | – | 52 | – |
| C=CC(=O)N1CCN(c2ncnc3c(Oc4c(Cl)c(F)cc5[nH]ncc45)nc(N)cc23)CC1 [Example 41A, 1-(4-{6-amino-8-[(5-chloro-6-fluoro-1H-indazol-4-yl)oxy]pyrido[3,4-d]pyrimidin-4-yl}piperazin-1-yl)prop-2-en-1-one] | – | 3.5 | – | – | 31 |
| C=CC(=O)N1CCN(c2ncnc3c(Oc4c(C)ccc5[nH]ncc45)cc(Br)cc23)CC1 [Example 13C, 1-(4-{6-bromo-8-[(5-methyl-1H-indazol-4-yl)oxy]quinazolin-4-yl}piperazin-1-yl)prop-2-en-1-one] | – | 3.74 | 36 | – | – |
| C=CC(=O)N1CCN(c2nc(O[C@H]3CCOC3)nc3c(Oc4c(Cl)c(F)cc5[nH]ncc45)nccc23)CC1 [Example 01J, 1-(4-{8-[(5-chloro-6-fluoro-1H-indazol-4-yl)oxy]-2-[(3S)-tetrahydrofuran-3-yloxy]pyrido[3,4-d]pyrimidin-4-yl}piperazin-1-yl)prop-2-en-1-one] | – | 0.339 | – | 55 | – |
| C=CC(=O)N1CCN(c2nc(O[C@@H]3CN(C)C[C@H]3OC)nc3c(Oc4c(Cl)c(F)cc5[nH]ncc45)nc(C)cc23)CC1 [Example 01K, 1-[4-(8-[(5-chloro-6-fluoro-1H-indazol-4-yl)oxy]-2-{[(3R,4R)-4-methoxy-1-methylpyrrolidin-3-yl]oxy}-6-methylpyrido[3,4-d]pyrimidin-4-yl)piperazin-1-yl]prop-2-en-1-one] | 65 | 0.065 | – | – | – |
| C=CC(=O)N1CCN(c2nc(N3CC(N(C)C)C3)nc3c(Oc4c(Cl)c(F)cc5[nH]ncc45)nc(Cl)cc23)CC1 [Example 05G, 1-(4-{6-chloro-8-[(5-chloro-6-fluoro-1H-indazol-4-yl)oxy]-2-[3-(dimethylamino)azetidin-1-yl]pyrido[3,4-d]pyrimidin-4-yl}piperazin-1-yl)prop-2-en-1-one] | – | 0.164 | 82 | 80 | 81 |
| C=CC(=O)N1CCN(c2nc(OC[C@@H]3CCC(=O)N3)nc3c(Oc4c(C)ccc5[nH]ncc45)cccc23)CC1 [Example 11F, (5S)-5-[({4-(4-acryloylpiperazin-1-yl)-8-[(5-methyl-1H-indazol-4-yl)oxy]quinazolin-2-yl}oxy)methyl]pyrrolidin-2-one] | – | 8.14 | 55 | – | 34 |
| C=CC(=O)N1CCN(c2nc(OCCO)nc3c(Oc4c(Cl)c(F)cc5[nH]ncc45)nc(Cl)cc23)CC1 [Example 23G, 1-(4-{6-chloro-8-[(5-chloro-6-fluoro-1H-indazol-4-yl)oxy]-2-(2-hydroxyethoxy)pyrido[3,4-d]pyrimidin-4-yl}piperazin-1-yl)prop-2-en-1-one] | – | 0.688 | – | 35 | – |
| C=CC(=O)N1CCN(c2nc(Oc3cccnc3C3CC3)nc3c(Oc4c(Cl)c(F)cc5[nH]ncc45)nccc23)CC1 [Example 06I, 1-(4-{8-[(5-chloro-6-fluoro-1H-indazol-4-yl)oxy]-2-[(2-cyclo-propyl-pyridin-3-yl)oxy]pyrido [3,4-d]pyrimidin-4-yl}piperazin-1-yl)prop-2-en-1-one] | – | 0.02 | – | 74 | – |
